In patent US10555987B2, “GHRH agonists for the treatment of ischemic disorders” (UNIVERSITY OF MIAMI, priority 2012, dated 2020):
Non-standard residues stand in square brackets, D forms with d. Residues, ends and D or L forms follow the SMILES beside them. *: point of attachment. Desaminotyrosyl = O=C(CCc1ccc(O)cc1)*; hArg = N=C(N)NCCCC[C@H](N)C(=O)O; Nle = CCCC[C@H](N)C(=O)O; Orn = NCCC[C@H](N)C(=O)O; Abu = CC[C@H](N)C(=O)O

Molecular target: T1, GHRH receptor (Homo sapiens, UniProt Q02643)
T1 sequence (Q02643 23-423): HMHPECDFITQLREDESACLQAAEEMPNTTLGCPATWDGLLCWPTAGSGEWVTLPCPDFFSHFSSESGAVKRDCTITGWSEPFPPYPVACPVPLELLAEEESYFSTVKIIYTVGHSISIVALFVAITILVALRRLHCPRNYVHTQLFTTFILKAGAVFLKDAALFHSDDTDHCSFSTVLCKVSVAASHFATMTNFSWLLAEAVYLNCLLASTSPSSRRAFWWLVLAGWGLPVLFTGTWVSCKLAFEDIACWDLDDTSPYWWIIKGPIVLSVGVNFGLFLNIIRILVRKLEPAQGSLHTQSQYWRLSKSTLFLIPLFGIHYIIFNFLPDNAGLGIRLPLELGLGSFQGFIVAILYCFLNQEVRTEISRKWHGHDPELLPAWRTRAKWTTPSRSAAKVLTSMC
Test: GHRH receptor binding, competition with 125I-labeled [His1,Nle27]hGHRH(1-32)NH2, human pituitary membrane homogenates (Table 6)
Set-up: Normal human pituitaries were purchased from the National Hormone and Peptide Program; tissue National Hormone and Peptide Program (A.F. Parlow, Harbor-UCLA Medical Center, Torrance, Calif.); host or cells: normal human pituitary, membrane fraction
Details: for Relative affinity (Binding potency) vs GHRH: GHRH(1-29) = 1, Table 6; for Relative affinity (Binding potency) vs JI-38: JI-38 = 1, Table 6
Excerpt: Normal human pituitaries were purchased from the National Hormone and Peptide Program (A.F. Parlow, Los Angeles, County Harbor-UCLA Medical Center, Torrance, Calif.).

Relative affinity (Binding potency) vs GHRH	Relative affinity (Binding potency) vs JI-38	SMILES
42.3	13.9	CCCC[C@H](NC(=O)[C@@H](NC(=O)[C@H](CC(=O)O)NC(=O)[C@H](CCC(N)=O)NC(=O)[C@H](CC(C)C)NC(=O)[C@H](CC(C)C)NC(=O)[C@H](CCCN)NC(=O)[C@H](CCCNC(=N)N)NC(=O)[C@H](C)NC(=O)[C@H](CO)NC(=O)[C@H](CC(C)C)NC(=O)[C@H](CCC(N)=O)NC(=O)[C@H](CC)NC(=O)[C@H](CC(C)C)NC(=O)[C@@H](NC(=O)[C@H](CCCN)NC(=O)[C@H](CCCNC(=N)N)NC(=O)[C@H](Cc1ccc(O)cc1)NC(=O)[C@H](CO)NC(=O)[C@H](CC(N)=O)NC(=O)[C@@H](NC(=O)[C@H](Cc1ccccc1)NC(=O)[C@@H](NC(=O)[C@H](C)NC(=O)[C@H](CC(=O)O)NC(=O)[C@@H](C)NC(=O)CCc1ccc(O)cc1)[C@@H](C)CC)[C@@H](C)O)C(C)C)[C@@H](C)CC)C(=O)N[C@@H](CC(=O)O)C(=O)N[C@@H](CCCNC(=N)N)C(=O)N[C@@H](CCCCNC(=N)N)C(N)=O [Peptide P-23252, [Dat^1-D-Ala^2, Orn^12, Abu^15, Orn^21, Nle^27, Asp^28, Har^30]hGHRH(1-30)NH^2] (Desaminotyrosyl-[dA]DAIFTNSYR[Orn]VL[Abu]QLSAR[Orn]LLQDI[Nle]DR[hArg]-NH2)
84.5	27.8	CCCC[C@H](NC(=O)[C@@H](NC(=O)[C@H](CC(=O)O)NC(=O)[C@H](CCC(N)=O)NC(=O)[C@H](CC(C)C)NC(=O)[C@H](CC(C)C)NC(=O)[C@H](CCCN)NC(=O)[C@H](CCCNC(=N)N)NC(=O)[C@H](C)NC(=O)[C@H](CO)NC(=O)[C@H](CC(C)C)NC(=O)[C@H](CCC(N)=O)NC(=O)[C@H](CC)NC(=O)[C@H](CC(C)C)NC(=O)[C@@H](NC(=O)[C@H](CCCN)NC(=O)[C@H](CCCNC(=N)N)NC(=O)[C@H](Cc1ccc(O)cc1)NC(=O)[C@H](CO)NC(=O)[C@@H](NC(=O)[C@@H](NC(=O)[C@H](Cc1ccccc1)NC(=O)[C@@H](NC(=O)[C@H](C)NC(=O)[C@H](CC(=O)O)NC(=O)[C@@H](C)NC(=O)CCc1ccc(O)cc1)[C@@H](C)CC)[C@@H](C)O)[C@@H](C)O)C(C)C)[C@@H](C)CC)C(=O)N[C@@H](CC(=O)O)C(=O)N[C@@H](CCCNC(=N)N)C(=O)N[C@@H](CCCCNC(=N)N)C(N)=O [Peptide P-23254, [Dat^1, D-Ala^2, Thr^8, Orn^12, Abu^15, Orn^21, Nle^27, Asp^28, Har^30]hGHRH(1-30)NH2] (Desaminotyrosyl-[dA]DAIFTTSYR[Orn]VL[Abu]QLSAR[Orn]LLQDI[Nle]DR[hArg]-NH2)
148.0	48.7	CCCC[C@H](NC(=O)[C@@H](NC(=O)[C@H](CC(=O)O)NC(=O)[C@H](CCC(N)=O)NC(=O)[C@H](CC(C)C)NC(=O)[C@H](CC(C)C)NC(=O)[C@H](CCCN)NC(=O)[C@H](CCCNC(=N)N)NC(=O)[C@H](C)NC(=O)[C@H](CO)NC(=O)[C@H](CC(C)C)NC(=O)[C@H](CCC(N)=O)NC(=O)[C@H](CC)NC(=O)[C@H](CC(C)C)NC(=O)[C@@H](NC(=O)[C@H](CCCN)NC(=O)[C@H](CCCNC(=N)N)NC(=O)[C@H](Cc1ccc(O)cc1)NC(=O)[C@H](CO)NC(=O)[C@H](C)NC(=O)[C@@H](NC(=O)[C@H](Cc1ccccc1)NC(=O)[C@@H](NC(=O)[C@H](C)NC(=O)[C@H](CC(=O)O)NC(=O)[C@@H](C)NC(=O)CCc1ccc(O)cc1)[C@@H](C)CC)[C@@H](C)O)C(C)C)[C@@H](C)CC)C(=O)N[C@@H](CC(=O)O)C(=O)N[C@@H](CCCNC(=N)N)C(=O)N[C@@H](CCCCNC(=N)N)C(N)=O [Peptide P-23256, [Dat^1, D-Ala^2, Ala^8, Orn^12, Abu^15, Orn^21, Nle^27, Asp^28, Har^30]hGHRH(1-30)NH2] (Desaminotyrosyl-[dA]DAIFTASYR[Orn]VL[Abu]QLSAR[Orn]LLQDI[Nle]DR[hArg]-NH2)
